Measurements reported in ChEMBL document CHEMBL6134780, “Halogenated retinoid derivatives as dual RARα and RXRα modulators for treating acute promyelocytic leukemia cells” (Eur J Med Chem, 2024).
Calls of active or inactive are those of the source. The rule behind the calls is not given here.

How the values were obtained:
[1] = Induction of apoptosis in human ATRA-resistant NB4-LR2 cells assessed as viable cells at 1 uM incubated for 24 hrs by Annexin V-FITC/PI staining based flow cytometric analysis (reference value: 87.30 %); assay type: functional; conditions: read-out: Activity
NB-4 [2] = assay: Cell cycle arrest in human NB4 cells assessed as accumulation of cells at S phase at 0.5 uM incubated for 6 days for DAPI staining based flow cytometric analysis (reference value: 27 %); assay type: functional; conditions: time 6 day
K562 [3] = assay: Induction of apoptosis in human K562 cells assessed as viable cells at 2 uM incubated for 24 hrs by Annexin V-FITC/PI staining based flow cytometric analysis (reference value: 90.02 %); assay type: functional; conditions: read-out: Activity
NB-4 [4] = assay: Cell cycle arrest in human NB4 cells assessed as accumulation of cells at G0/G1 phase at 1 uM incubated for 12 hrs by DAPI staining based flow cytometric analysis (reference value: 51 %); assay type: functional
K562 [5] = assay: Effect on cell cycle population in human K562 cells at 0.5 uM by DAPI staining based flow cytometric analysis; assay type: functional
NB-4 [6] = assay: Induction of apoptosis in human NB4 cells assessed as early apoptotic cells at 1 uM incubated for 24 hrs by Annexin V-FITC/PI staining based flow cytometric analysis (reference value: 4.37 %); assay type: functional
NB-4 [7] = assay: Induction of apoptosis in human NB4 cells assessed as necrotic cells at 1 uM incubated for 24 hrs by Annexin V-FITC/PI staining based flow cytometric analysis (reference value: 0.07 %); assay type: functional
[8] = Cell cycle arrest in human ATRA-resistant NB4-LR2 cells assessed as accumulation of cells at sub-G1 phase at 1 uM incubated for 12 hrs by DAPI staining based flow cytometric analysis (reference value: 18 %); assay type: functional
NB-4 [9] = assay: Cell cycle arrest in human NB4 cells assessed as accumulation of cells at sub-G1 phase at 0.5 uM incubated for 6 days for DAPI staining based flow cytometric analysis (reference value: 6 %); assay type: functional; conditions: time 6 day
NB-4 [10] = assay: Induction of cell death in M phase synchronized human NB4 cells assessed as reduction in mitotic cells at 0.5 uM preincubated for 4 days followed by release from thymidine block for 10 hrs by immunofluorescence staining based analysis; assay type: functional; conditions: time 106.0 hrs
Homo sapiens = species: Homo sapiens; assay: Binding affinity to N-terminal His-tagged human RARalpha LBD R276E mutant extracted from Escherichia coli BL21 (DE3) cells by ITC analysis
NB-4 [11] = assay: Cell cycle arrest in human NB4 cells assessed as accumulation of cells at G2/M phase at 0.5 uM incubated for 6 days for DAPI staining based flow cytometric analysis (reference value: 15 %); assay type: functional; conditions: time 6 day
ATRA-resistant NB4-LR2 = assay: Antiproliferative activity against human ATRA-resistant NB4-LR2 cells assessed as effect on cell viability up to 2 uM incubated for 3 days by CCK8 assay; assay type: functional, cell-based; conditions: time 3.0 day
NB-4 [12] = assay: Cell cycle arrest in human NB4 cells assessed as accumulation of cells at G0/G1 phase at 0.5 uM incubated for 6 days for DAPI staining based flow cytometric analysis (reference value: 52 %); assay type: functional; conditions: time 6 day
Jurkat = assay: Induction of cell differentiation in human Jurkat cells at 0.5 uM incubated for 6 days by CD11b staining based flow cytometric analysis; assay type: functional; conditions: time 6.0 day
NB-4 [13] = assay: Induction of cell differentiation in human NB4 cells at 0.5 uM incubated for 4 to 6 days by CD11b staining based flow cytometric analysis; assay type: functional; conditions: time 4-6 day
[14] = Induction of apoptosis in human ATRA-resistant NB4-LR2 cells assessed as necrotic cells at 1 uM incubated for 24 hrs by Annexin V-FITC/PI staining based flow cytometric analysis (reference value: 0.08 %); assay type: functional
[15] = Induction of apoptosis in human ATRA-resistant NB4-LR2 cells assessed as late apoptotic cells at 1 uM incubated for 24 hrs by Annexin V-FITC/PI staining based flow cytometric analysis (reference value: 7.23 %); assay type: functional
K562 [16] = assay: Induction of cell differentiation in human K562 cells at 0.5 uM incubated for 6 days by CD11b staining based flow cytometric analysis; assay type: functional; conditions: time 6.0 day
[17] = Cell cycle arrest in human ATRA-resistant NB4-LR2 cells assessed as accumulation of cells at G2/M phase at 1 uM incubated for 12 hrs by DAPI staining based flow cytometric analysis (reference value: 28 %); assay type: functional
[18] = Cell cycle arrest in human ATRA-resistant NB4-LR2 cells assessed as accumulation of cells at G0/G1 phase at 1 uM incubated for 12 hrs by DAPI staining based flow cytometric analysis (reference value: 42 %); assay type: functional
NB-4 [19] = assay: Cell cycle arrest in human NB4 cells assessed as accumulation of cells at G2/M phase at 1 uM incubated for 12 hrs by DAPI staining based flow cytometric analysis (reference value: 26 %); assay type: functional
NB-4 [20] = assay: Antiproliferative activity against human NB4 cells assessed as inhibition of cell viability at 0.1 uM incubated for 3 days by CCK8 assay relative to control; assay type: functional; conditions: NB-4, 72 h, time 3 day
K562 [21] = assay: Induction of apoptosis in human K562 cells assessed as necrotic cells at 2 uM incubated for 24 hrs by Annexin V-FITC/PI staining based flow cytometric analysis (reference value: 2.19 %); assay type: functional
NB-4 [22] = assay: Cell cycle arrest in human NB4 cells assessed as accumulation of cells at S phase at 1 uM incubated for 12 hrs by DAPI staining based flow cytometric analysis (reference value: 20 %); assay type: functional
[23] = Induction of apoptosis in human ATRA-resistant NB4-LR2 cells assessed as early apoptotic cells at 1 uM incubated for 24 hrs by Annexin V-FITC/PI staining based flow cytometric analysis (reference value: 5.38 %); assay type: functional
NB-4 [24] = assay: Cell cycle arrest in human NB4 cells assessed as accumulation of cells at sub-G1 phase at 1 uM incubated for 12 hrs by DAPI staining based flow cytometric analysis (reference value: 2 %); assay type: functional
K562 [25] = assay: Induction of apoptosis in human K562 cells assessed as late apoptotic cells at 2 uM incubated for 24 hrs by Annexin V-FITC/PI staining based flow cytometric analysis (reference value: 5.98 %); assay type: functional
NB-4 [26] = assay: Induction of cell differentiation in human NB4 cells assessed as NBT positive cells at 0.5 uM incubated for 6 days by Nitro Blue tetrazolium chloride based microscopic analysis (reference value: 0 %); assay type: functional; conditions: time 6 day
HEK293T = assay: Agonist activity at full length RARalpha LBD R276E mutant (unknown origin) transfected in HEK293T cells co-transfected with pG5luc reporter and Renilla-luc at 1 uM incubated for 12 hrs by luciferase reporter gene assay; assay type: cell-based; conditions: Homo sapiens, filed as agonist
[27] = Cell cycle arrest in human ATRA-resistant NB4-LR2 cells assessed as accumulation of cells at S phase at 1 uM incubated for 12 hrs by DAPI staining based flow cytometric analysis (reference value: 12 %); assay type: functional
K562 [28] = assay: Induction of apoptosis in human K562 cells assessed as early apoptotic cells at 2 uM incubated for 24 hrs by Annexin V-FITC/PI staining based flow cytometric analysis (reference value: 0.91 %); assay type: functional
NB-4 [29] = assay: Induction of apoptosis in human NB4 cells assessed as late apoptotic cells at 1 uM incubated for 24 hrs by Annexin V-FITC/PI staining based flow cytometric analysis (reference value: 3.20 %); assay type: functional
[30] = molecular target: T1, Retinoic acid receptor gamma (Homo sapiens) (UniProt P13631); assay: Agonist activity at Gal4-fused full length human RARgamma LBD transfected in HEK293T cells co-transfected with pG5luc reporter and Renilla-luc assessed as transactivation by measuring maximal efficacy incubated for 12 hrs by dual luciferase reporter gene assay relative to control; assay type: cell-based; conditions: filed as agonist
T1 sequence (whole entry): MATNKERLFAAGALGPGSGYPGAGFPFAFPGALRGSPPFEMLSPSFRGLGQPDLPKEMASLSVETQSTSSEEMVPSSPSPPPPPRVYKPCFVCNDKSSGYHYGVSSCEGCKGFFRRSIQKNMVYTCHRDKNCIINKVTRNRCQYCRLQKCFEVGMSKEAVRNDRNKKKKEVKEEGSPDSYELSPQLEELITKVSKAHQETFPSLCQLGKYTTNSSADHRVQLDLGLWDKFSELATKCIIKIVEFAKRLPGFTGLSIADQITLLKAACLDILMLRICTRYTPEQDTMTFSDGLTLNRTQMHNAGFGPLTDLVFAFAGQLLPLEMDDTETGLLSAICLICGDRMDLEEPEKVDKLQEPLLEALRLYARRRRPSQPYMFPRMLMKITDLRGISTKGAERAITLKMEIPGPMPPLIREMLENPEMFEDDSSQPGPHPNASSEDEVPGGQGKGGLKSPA

NB-4 [31] = assay: Induction of apoptosis in human NB4 cells assessed as viable cells at 1 uM incubated for 24 hrs by Annexin V-FITC/PI staining based flow cytometric analysis (reference value: 92.36 %); assay type: functional; conditions: read-out: Activity
[32] = molecular target: T2, Retinoic acid receptor gamma (Homo sapiens, UniProt P13631); assay: Agonist activity at Gal4-fused full length human RARgamma LBD transfected in HEK293T cells co-transfected with pG5luc reporter and Renilla-luc assessed as transactivation incubated for 12 hrs by dual luciferase reporter gene assay; assay type: cell-based; conditions: hek293t
T2 sequence (P13631 whole entry): T1 sequence (whole entry)

NB-4 [33] = assay: Antiproliferative activity against human NB4 cells assessed as inhibition of cell viability at 0.125 uM incubated for 3 days by CCK8 assay relative to control; assay type: functional; conditions: NB-4, 72 h, time 3 day
NB-4 [34] = assay: Induction of apoptosis in human NB4 cells assessed as late apoptotic cells at 1 uM incubated for 24 hrs by Annexin V-FITC/PI staining based flow cytometric analysis (reference value: 2.23 %); assay type: functional
[35] = Induction of apoptosis in human ATRA-resistant NB4-LR2 cells assessed as early apoptotic cells at 1 uM incubated for 24 hrs by Annexin V-FITC/PI staining based flow cytometric analysis (reference value: 1.41 %); assay type: functional
[36] = Induction of apoptosis in human ATRA-resistant NB4-LR2 cells assessed as late apoptotic cells at 1 uM incubated for 24 hrs by Annexin V-FITC/PI staining based flow cytometric analysis (reference value: 5.62 %); assay type: functional
NB-4 [37] = assay: Induction of apoptosis in human NB4 cells assessed as early apoptotic cells at 1 uM incubated for 24 hrs by Annexin V-FITC/PI staining based flow cytometric analysis (reference value: 1.77 %); assay type: functional
[38] = molecular target: T3, Retinoic acid receptor alpha (Homo sapiens) (UniProt P10276); assay: Agonist activity at full length RARalpha LBD (unknown origin) transfected in HEK293T cells co-transfected with pG5luc reporter and Renilla-luc assessed as transactivation at 0.5 to 1 uM incubated for 12 hrs by luciferase reporter gene assay; assay type: cell-based; conditions: filed as agonist, dose 0.5-1 µM
T3 sequence (whole entry): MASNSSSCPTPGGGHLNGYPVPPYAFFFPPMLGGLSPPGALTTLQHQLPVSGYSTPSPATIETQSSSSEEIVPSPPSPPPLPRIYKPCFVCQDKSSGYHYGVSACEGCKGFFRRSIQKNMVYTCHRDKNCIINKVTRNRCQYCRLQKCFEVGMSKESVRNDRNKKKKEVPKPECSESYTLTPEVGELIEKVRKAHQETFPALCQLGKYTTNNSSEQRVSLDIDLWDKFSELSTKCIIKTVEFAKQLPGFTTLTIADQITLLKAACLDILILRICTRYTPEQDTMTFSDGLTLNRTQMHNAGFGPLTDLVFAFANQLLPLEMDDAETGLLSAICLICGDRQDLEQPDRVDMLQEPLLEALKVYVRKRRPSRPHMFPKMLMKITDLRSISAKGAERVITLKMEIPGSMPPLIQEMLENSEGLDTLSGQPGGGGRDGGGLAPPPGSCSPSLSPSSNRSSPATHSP

CC1=C(/C=C/C(C)=C/C=C/C(C)=C/C(=O)O)C(C)(C)CCC1 [TRETINOIN]
viability at 1 µM [1]: 88.6% | Activity (NB-4 [2]): 17% | viability at 2 µM (K562 [3]): 89.5% | Activity (NB-4 [4]): 65% | Activity (K562 [5]): inactive | Activity (NB-4 [6]): 3.11% | Activity (NB-4 [7]): 0.13% | Activity [8]: 19% | Activity (NB-4 [9]): 3% | Activity (NB-4 [10]): Active | Activity (Homo sapiens): inactive | Activity (NB-4 [11]): 16% | Activity (ATRA-resistant NB4-LR2): inactive | Activity (NB-4 [12]): 64% | Activity (Jurkat): inactive | Activity (NB-4 [13]): Active | Activity [14]: 0.08% | Activity [15]: 7.92% | Activity (K562 [16]): inactive | Activity [17]: 27% | Activity [18]: 43% | Activity (NB-4 [19]): 23% | inhibition at 0.1 µM (NB-4 [20]): ~40% | Activity (K562 [21]): 2.01% | Activity (NB-4 [22]): 10% | Activity [23]: 3.39% | Activity (NB-4 [24]): 2% | Activity (K562 [25]): 6.84% | Activity (NB-4 [26]): 33% | Activity (HEK293T): Active; Partial Impairment Observed | Activity [27]: 11% | Activity (K562 [28]): 1.04% | Activity (NB-4 [29]): 6.37% | Emax [30]: 100% | viability at 1 µM (NB-4 [31]): 90.4%

CC1(C)CCC(C)(C)c2cc(C(=O)Nc3ccc(C(=O)O)cc3)ccc21
Activity (ATRA-resistant NB4-LR2): inactive | EC50 [32]: Not_determined(Unstable) | inhibition at 0.125 µM (NB-4 [33]): ~40% | Activity (HEK293T): Active; Partial Impairment Observed

Cc1cc2c(cc1C(=O)/C(I)=C/c1ccc(C(=O)O)cc1)C(C)(C)CCC2(C)C
Activity (NB-4 [34]): 4.24% | Activity (NB-4 [4]): 63% | Activity [35]: 1.1% | Activity [36]: 6.66% | Activity (NB-4 [37]): 0.58% | Activity [8]: 20% | Activity [17]: 30% | Activity [38]: Active; Highly Raralpha Selective Agonistic Activity Observed | Activity [18]: 41% | Activity (NB-4 [19]): 24% | Activity (NB-4 [22]): 11% | Activity (NB-4 [24]): 2% | inhibition at 0.125 µM (NB-4 [33]): ~40% | Activity (NB-4 [26]): 78% | Activity [27]: 9%
